Assay results from US9873705B2, “Vinylogous thioester compounds and methods of use” (THE TRUSTEES OF DARTMOUTH COLLEGE, priority 2015, dated 2018).
“Also recorded” adds a separate entry of the source.

Columns and labels:
[1] = test system: ROS in U87-MG cells; assay: ROS detection by DCF-DA immunofluorescence; assay type: cell-based, human; conditions: Y102 2.2 or 4.5 μM 24 h, S1 20 μM 1 h, vs DMSO
Procedure: Damaged mitochondria generate and accumulate reactive oxygen species (ROS), which are damaging to the cell. RAS dysregulated tumors are reported to depend on autophagy in order to remove the damaged mitochondria and allow for their survival (22). […] The ROS detection reagent DCF-DA, which is converted to its fluorescent form DCF upon ROS-mediated oxidation, was used to examine if ROS levels increase with Y102 treatment.
The data for FIG. 5 was obtained as follows: U87-MG cells were plated on poly-D-lysine (Neuvitro Corporation) coated coverslips at a concentration of 50,000 cells/well in a 24-well plate and allowed to adhere overnight. Cells were treated for 24 h with DMSO, 2.2 μM Y102, or 4.5 μM Y102, or for 1 h with 20 μM S1. 30 minutes prior to treatment end, cells were stained with 20 μM 2′, 7′-dichlorofluorescin diacetate (DCFDA, Sigma, green) at 37° C. Following staining, cells were fixed for 10 minutes with 3.7% formaldehyde. After an additional two washes with PBST, cell nuclei were stained with 0.33 μg/mL DAPI (Molecular Probes) for 30 minutes (blue). Coverslips were mounted on glass slides with ProLong Gold antifade medium. Wide-field images were taken with a Zeiss Imager Z1 wide-field microscope using a 40×1.3 NA EC Plan-NEOFLUAR objective and Zeiss Axiovision software. Scale bar, 20 μm.

[2] = test system: U87-MG cells; assay: U87-MG viability with NAC pretreatment, alamarBlue; assay type: cell-based, human; conditions: 2 hour pretreatment with 5 mM NAC, then 72 hours Y102
Procedure: The data for FIG. 6 was obtained as follows: U87-MG cells were plated at a concentration of 5,000 cells/well into 96-well plates and allowed to adhere overnight. The following day, cells were pretreated with 5 mM N-acetyl cysteine (NAC) or the equivalent volume of DMSO 2 h prior to treatment with Y102 at concentrations ranging from 0 to 20 μM for 72 h. Three hours prior to collection, alamarBlue (Thermo Scientific) was added to a final concentration of 5% v/v. AlamarBlue fluorescence was determined with a Spectramax M2 (Molecular Devices) plate reader at an excitation of 544 nm and an emission of 590 nm using SoftMax Pro 3 software. Results were plotted as a percentage compared to DMSO control using GraphPad Prism software (FIG. 6).

[3] = test system: BNIP3L/Nix in NF1+/+ and NF1−/− IMEC CRISPR cells; assay: BNIP3L/Nix immunofluorescence; assay type: cell-based; conditions: 1 μM, 24 h, NF1−/− vs NF1+/+ IMEC CRISPR cells, vs DMSO
Text: Mitochondria can also be removed via non-selective autophagy (21). To distinguish between inhibition of mitophagy and not non-selective autophagy, expression and localization of one mitophagy-specific receptors involved in […] mitophagy, BNIP3L/Nix, was examined via immunofluorescence (25) (FIG. 10). BNIP3 and its homologue BNIP3L/NIX are involved in hypoxia-induced mitophagy and are transcriptionally regulated through HIF in human cancers (27). BNIP3-mediated mitophagy is also reported to occur following perinuclear clustering and fragmentation of the mitochondria (28,29). Under hypoxic conditions, both BNIP3 and FUNDC1 are reported to localize to the outer mitochondrial membrane (30). Therefore, if mitophagy is inhibited with Y102 under hypoxic conditions, BNIP3, NIX/BNIP3L, and/or FUNDC1 should accumulate if Y102 inhibits […] mitophagy following receptor localization.
CRISPR technology was used to introduce mutated NF1 into mammalian IMEC cells in order to generate an isogenic system for the testing of compounds that mimics the yeast isogenic system used in the original screens.
The data for FIG. 10 was obtained as follows: NF1+/+ and NF1−/− IMEC CRISPR cells were plated on poly-L-lysine (Sigma) coated coverslips at a concentration of 50,000 cells/well in a 24-well plate and allowed to adhere overnight. […]

[4] = test system: U-87-MG; assay: Glioblastoma cell growth, Alamar Blue, 3 or 7 days; assay type: cell-based, human; conditions: 3.9×10^-8 M to 2×10^-5 M
Procedure: (§1) 1000 cells in logarithmic phase were seeded per well (96 well plates) on day zero. The cells were treated for either 3 (red) or 7 (blue) days at a concentration range between 3.9×10^-8 M and 2×10^-5 M. Growth was assayed by the Alamar Blue method.

[5] = test system: U251-MG; assay: Glioblastoma cell growth, Alamar Blue, 3 or 7 days; assay type: cell-based, human; conditions: 3.9×10^-8 M to 2×10^-5 M
Procedure: as §1

Cn1cnnc1S/C=C/C(=O)c1ccc(F)cc1 [Y102]
ROS accumulation (DCF-DA) [1]: ROS were found to accumulate; also recorded: accumulation of ROS
sensitivity to Y102 after NAC pretreatment [2]: reversed sensitivity to Y102; also recorded: rescued
BNIP3L/Nix accumulation (mitophagy receptor) [3]: perinuclear clustering of the mitophagy receptor BNIP3L/NIX was observed; also recorded: accumulated with Y102 treatment moreso in NF1−/− cells than in NF1+/+ cells
sensitivity of U-87-MG (growth) [4]: sensitive
sensitivity of U251-MG (growth) [5]: sensitive
